This note sets out measurements from ChEMBL document CHEMBL1221255, “New halogenated 3-phenylcoumarins as potent and selective MAO-B inhibitors” (Bioorg Med Chem Lett, 2010).

For assay [1], the target named is T1, Amine oxidase [flavin-containing] A (Homo sapiens, UniProt P21397).
T1 sequence (P21397 whole entry): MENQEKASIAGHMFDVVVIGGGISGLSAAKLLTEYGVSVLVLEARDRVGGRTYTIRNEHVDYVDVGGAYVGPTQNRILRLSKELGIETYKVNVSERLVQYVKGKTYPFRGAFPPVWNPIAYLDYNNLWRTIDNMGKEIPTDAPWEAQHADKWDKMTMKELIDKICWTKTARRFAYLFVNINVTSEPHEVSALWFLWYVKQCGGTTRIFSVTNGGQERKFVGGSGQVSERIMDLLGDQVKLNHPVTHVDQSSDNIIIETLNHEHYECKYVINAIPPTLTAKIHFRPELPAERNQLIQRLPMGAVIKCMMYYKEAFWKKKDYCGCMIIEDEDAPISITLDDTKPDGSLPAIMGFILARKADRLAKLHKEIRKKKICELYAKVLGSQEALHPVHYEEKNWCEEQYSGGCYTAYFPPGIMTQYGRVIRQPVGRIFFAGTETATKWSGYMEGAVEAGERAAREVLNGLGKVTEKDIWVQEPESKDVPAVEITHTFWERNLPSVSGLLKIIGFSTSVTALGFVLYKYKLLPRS
The assay can be described thus: Inhibition of MAOA expressed in BTI insect cells at 100 uM.

For assay [2], the target named is T2, Amine oxidase [flavin-containing] B (Homo sapiens, UniProt P27338).
T2 sequence (P27338 whole entry): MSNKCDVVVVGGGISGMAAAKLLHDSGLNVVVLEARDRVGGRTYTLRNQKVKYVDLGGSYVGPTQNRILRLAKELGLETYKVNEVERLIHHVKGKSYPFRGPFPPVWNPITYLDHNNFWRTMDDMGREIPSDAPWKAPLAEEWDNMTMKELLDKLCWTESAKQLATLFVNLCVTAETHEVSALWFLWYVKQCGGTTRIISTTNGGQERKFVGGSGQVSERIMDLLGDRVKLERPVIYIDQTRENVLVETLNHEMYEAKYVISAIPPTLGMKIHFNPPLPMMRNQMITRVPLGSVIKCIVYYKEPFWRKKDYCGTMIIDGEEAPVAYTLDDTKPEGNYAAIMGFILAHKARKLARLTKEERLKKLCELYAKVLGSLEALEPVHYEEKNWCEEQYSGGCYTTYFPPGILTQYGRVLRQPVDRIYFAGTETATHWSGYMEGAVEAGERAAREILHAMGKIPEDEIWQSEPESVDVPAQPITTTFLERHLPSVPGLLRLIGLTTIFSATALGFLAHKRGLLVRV
Put plainly: Inhibition of human MAOB expressed in BTI insect cells. It is filed as cell-based.

The species named for assay [3] is Homo sapiens. The assay can be described thus: Selectivity ratio of IC50 for human MAOA to IC50 for human MAOB.
Assay [4] has as its target T1, Amine oxidase [flavin-containing] A. Put plainly: Inhibition of human MAOA expressed in BTI insect cells.

As to `COc1ccc(-c2cc3cc(C)cc(Br)c3oc2=O)cc1`, the IC50 entry in assay [1] is “Not Active”; in assay [2], 3.23 nM. For the same compound, the Ratio IC50 in assay [3] was more than 31000.

`Cc1cc(Br)c2oc(=O)c(-c3ccccc3)cc2c1`: the concentration for half-maximal inhibition (IC50) result is “Not Active” in assay [1] and 11.1 nM in assay [2]. The Ratio IC50 in assay [3] was more than 9050.

As for `COc1cc(OC)cc(-c2cc3cc(C)cc(Br)c3oc2=O)c1`, the 50% inhibitory concentration (IC50) result in assay [1] is “Not Active”; in assay [2] it was 7.12 nM. Besides, the Ratio IC50 in assay [3] is more than 14000.

Regarding `COc1cc(-c2cc3cc(C)cc(Br)c3oc2=O)cc(OC)c1OC`, the 50% inhibitory concentration (IC50) in assay [2] stood at 4890 nM; in assay [4], 31200 nM. For the same compound, the Ratio IC50 in assay [3] was 6.4.

As for `Cc1ccc2oc(=O)c(-c3ccccc3Br)cc2c1`, the figures for the IC50 result in assay [1] and in assay [2] were “Not Active” and 4300 nM, respectively. For the same compound, in assay [3], the Ratio IC50 was more than 23.

For orientation: IC50 means the concentration that gives 50% inhibition. Low values mean higher potency, high ones lower potency.
